Laboratory results from US7041463B2, “Orthologues of human receptors and methods of use” (Pharmacopeia Drug Discovery, Inc., priority 2000, dated 2006).
pIC50: −log10 of the molar value. One block for each compound: values may come before it.

Experiments:
[1] = biological target: T1, cholecystokinin-B receptor (Homo sapiens, UniProt P32239); conditions: human receptor with valine 319 substituted by leucine vs human receptor; cited from earlier work
T1 sequence (P32239 1-447 V349L): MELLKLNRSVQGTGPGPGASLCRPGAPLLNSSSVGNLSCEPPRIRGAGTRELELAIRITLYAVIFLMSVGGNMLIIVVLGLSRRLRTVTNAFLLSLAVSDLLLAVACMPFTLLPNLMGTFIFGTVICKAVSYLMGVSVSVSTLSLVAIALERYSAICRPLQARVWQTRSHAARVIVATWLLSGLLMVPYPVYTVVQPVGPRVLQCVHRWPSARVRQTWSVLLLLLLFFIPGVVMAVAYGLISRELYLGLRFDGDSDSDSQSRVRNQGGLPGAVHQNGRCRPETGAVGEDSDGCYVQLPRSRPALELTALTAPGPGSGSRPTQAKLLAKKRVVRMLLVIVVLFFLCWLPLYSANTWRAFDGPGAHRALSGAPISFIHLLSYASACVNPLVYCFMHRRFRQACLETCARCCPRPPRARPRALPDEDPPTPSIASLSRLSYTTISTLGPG

cloned rat NK1 receptor = cloned rat NK1 receptor (Rattus norvegicus, UniProt P14600); conditions: cited from earlier work
cloned rat NK1 receptor, sequence (P14600 whole entry): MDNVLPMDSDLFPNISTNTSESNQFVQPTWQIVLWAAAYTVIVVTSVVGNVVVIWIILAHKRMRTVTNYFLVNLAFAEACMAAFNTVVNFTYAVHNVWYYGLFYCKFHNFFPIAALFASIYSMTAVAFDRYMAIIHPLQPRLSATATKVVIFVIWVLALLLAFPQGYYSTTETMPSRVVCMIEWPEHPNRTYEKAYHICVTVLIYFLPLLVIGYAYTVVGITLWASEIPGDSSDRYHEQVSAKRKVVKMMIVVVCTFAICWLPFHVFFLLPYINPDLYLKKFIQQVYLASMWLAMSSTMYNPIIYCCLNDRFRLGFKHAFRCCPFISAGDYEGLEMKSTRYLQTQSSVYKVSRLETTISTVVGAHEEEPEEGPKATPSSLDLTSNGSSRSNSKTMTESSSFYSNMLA

rabbit B1 = biological target: T2, rabbit B1 (Oryctolagus cuniculus, UniProt P48748); experiment: [3H]-des-Arg10-kallidin binding, 293E membranes, rabbit B1; conditions: 0.6 nM [3H]-dAKd
T2 construct: expressed in transfected cells; host or cells: 293-EBNA (293E) cells, membranes
T2 sequence (P48748 1-352): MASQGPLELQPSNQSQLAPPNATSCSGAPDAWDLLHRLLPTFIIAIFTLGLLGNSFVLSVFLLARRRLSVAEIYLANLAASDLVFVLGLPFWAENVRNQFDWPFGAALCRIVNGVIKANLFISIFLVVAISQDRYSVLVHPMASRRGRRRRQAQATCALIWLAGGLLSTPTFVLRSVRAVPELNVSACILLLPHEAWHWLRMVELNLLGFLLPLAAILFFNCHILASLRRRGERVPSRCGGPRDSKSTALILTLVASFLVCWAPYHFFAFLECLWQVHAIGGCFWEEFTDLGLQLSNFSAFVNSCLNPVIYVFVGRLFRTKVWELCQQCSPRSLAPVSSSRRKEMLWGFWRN
Protocol: (§1) Membrane preparations for use in accordance with the methods of the present invention were generated as follows. 293E cells expressing B1 receptors were harvested and pelleted. Cells were washed once with PBS and once with a membrane buffer (for example, 10 mM HEPES pH 7.5, 1 μM phosphoramidon, 3 μM amastatin, 1 μM captopril, 2 μM dithiothreitol (DTT)). Cells were resuspended in membrane buffer and Dounce homogenized on ice 35 times. The membranes were collected by centrifugation at 15,000×g for 30 min. at 4° C. and resuspended in membrane buffer containing 0.2% bovine serum albumin (BSA) at a final concentration of approximately 5×10^7 cell equivalents per ml. Aliquots were flash frozen and stored at −80° C. Frozen aliquots were subsequently thawed, diluted, and sonicated on ice using a Branson Sonifier® 250 (4×5 sec, 40% output).
(§2) Prior to use in a binding assay, a membrane preparation is “calibrated” as described below to determine the amount of membrane preparation to be used. […]
(§3) The method of the present invention employs a binding assay such as the one described below. […] 50 μl of scintillation fluid was added to each well and plates were counted in a Wallac Microbeta® TriLux for 10 min. per well.

pig B1 = experiment: [3H]-des-Arg10-kallidin binding, 293E membranes, pig B1; conditions: 0.6 nM [3H]-dAKd
pig B1, sequence (as listed by the source): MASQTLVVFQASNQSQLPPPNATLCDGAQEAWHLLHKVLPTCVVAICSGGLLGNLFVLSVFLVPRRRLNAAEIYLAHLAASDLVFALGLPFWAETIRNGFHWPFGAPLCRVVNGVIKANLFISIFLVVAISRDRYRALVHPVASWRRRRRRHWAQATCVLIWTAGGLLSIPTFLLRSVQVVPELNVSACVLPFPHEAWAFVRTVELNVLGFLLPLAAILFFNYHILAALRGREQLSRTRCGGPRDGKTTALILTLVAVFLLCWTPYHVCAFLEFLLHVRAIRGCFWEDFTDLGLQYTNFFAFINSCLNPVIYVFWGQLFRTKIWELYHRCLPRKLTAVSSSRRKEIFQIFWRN
Protocol: as §1, §2, §3

[2] = biological target: rhesus macaque B1 receptor; experiment: [3H]-des-Arg10-kallidin binding, 293E membranes, rhesus macaque B1; design: species or system rhesus macaque (Macaca mulatta); conditions: 0.6 nM [3H]-dAKd
rhesus macaque B1 receptor, sequence (as listed by the source): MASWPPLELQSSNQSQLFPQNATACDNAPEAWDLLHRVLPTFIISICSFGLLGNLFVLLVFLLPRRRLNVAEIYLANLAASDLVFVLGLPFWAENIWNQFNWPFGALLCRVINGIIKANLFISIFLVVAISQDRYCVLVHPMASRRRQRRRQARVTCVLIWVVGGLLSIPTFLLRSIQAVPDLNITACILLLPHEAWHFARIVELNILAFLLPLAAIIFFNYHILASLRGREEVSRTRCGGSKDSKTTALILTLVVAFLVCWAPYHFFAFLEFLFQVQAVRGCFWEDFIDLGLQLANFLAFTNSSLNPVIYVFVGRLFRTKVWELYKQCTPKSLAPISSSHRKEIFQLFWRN
Protocol: as §1, §2, §3

dog B1 = biological target: T3, dog B1 (Canis lupus familiaris, UniProt Q9BDQ5, D322E/F324Y/R319K); experiment: [3H]-des-Arg10-kallidin binding, 293E membranes, dog B1 (canine/human chimera); conditions: 0.6 nM [3H]-dAKd
T3 construct: the chimeric canine/human receptor described above was used in the experiments described below; C-terminal cytoplasmic tail of human bradykinin B1 receptor (fusion partner of the chimera); expressed in transfected cells; host or cells: 293-EBNA (293E) cells, membranes
T3 sequence (Q9BDQ5 with tags, fused parts or gaps R319K/D322E/F324Y): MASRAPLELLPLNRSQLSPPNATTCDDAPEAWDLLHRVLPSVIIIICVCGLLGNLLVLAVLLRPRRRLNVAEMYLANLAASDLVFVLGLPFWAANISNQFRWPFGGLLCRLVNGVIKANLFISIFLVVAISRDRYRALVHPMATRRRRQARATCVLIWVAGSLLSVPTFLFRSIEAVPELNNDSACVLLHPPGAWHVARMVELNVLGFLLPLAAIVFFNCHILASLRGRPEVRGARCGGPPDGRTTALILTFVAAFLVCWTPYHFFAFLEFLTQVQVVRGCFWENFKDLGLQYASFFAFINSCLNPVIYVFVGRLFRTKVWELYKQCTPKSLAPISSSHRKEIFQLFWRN
Description: Additionally, a canine/human chimeric bradykinin B1 receptor comprising amino acids 1 to 320 of the canine sequence and amino acids 319–353 of human bradykinin B1 receptor was generated. Any number of chimeric molecules, for example, a chimera comprising amino acids 1–315 of the canine sequence and amino acids 314–353 of the human sequence can be used.
as §1, with “Frozen aliquots were subsequently thawed, diluted, and sonicated on ice using a Branson Sonifier® 250 (4×5 sec, 40% output).” left out
as §3

human B1 receptor = biological target: T4, human B1 receptor (Homo sapiens, UniProt P46663); experiment: [3H]-des-Arg10-kallidin binding, 293E membranes, human B1; conditions: 0.6 nM [3H]-dAKd
T4 construct: expressed in transfected cells; host or cells: 293-EBNA (293E) cells, membranes
T4 sequence (P46663 1-353): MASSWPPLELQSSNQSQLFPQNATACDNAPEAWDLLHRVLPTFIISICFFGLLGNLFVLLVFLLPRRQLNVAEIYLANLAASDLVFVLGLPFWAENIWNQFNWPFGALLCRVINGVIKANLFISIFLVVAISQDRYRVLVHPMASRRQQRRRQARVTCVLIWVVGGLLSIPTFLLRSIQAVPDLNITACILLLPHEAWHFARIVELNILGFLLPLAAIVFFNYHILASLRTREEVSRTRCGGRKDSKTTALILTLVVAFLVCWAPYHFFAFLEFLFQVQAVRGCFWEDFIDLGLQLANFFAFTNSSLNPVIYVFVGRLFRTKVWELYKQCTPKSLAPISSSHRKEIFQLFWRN
Description: Prior to use in a binding assay, a membrane preparation is “calibrated” as described below to determine the amount of membrane preparation to be used. A frozen sample of a membrane preparation is thawed and the preparation diluted in assay buffer to obtain several different concentrations of membranes, for example, 1:5, 1:10, 1:20, 1:40 and so on. The diluted membrane preparation is sonicated in a bath style sonicator for 15 seconds at room temperature. […]

tree shrew B1 receptor = experiment: [3H]-des-Arg10-kallidin binding, 293E membranes, tree shrew B1; design: species or system tree shrew (Tupaia minor); conditions: 0.6 nM [3H]-dAKd
tree shrew B1 receptor, sequence (as listed by the source): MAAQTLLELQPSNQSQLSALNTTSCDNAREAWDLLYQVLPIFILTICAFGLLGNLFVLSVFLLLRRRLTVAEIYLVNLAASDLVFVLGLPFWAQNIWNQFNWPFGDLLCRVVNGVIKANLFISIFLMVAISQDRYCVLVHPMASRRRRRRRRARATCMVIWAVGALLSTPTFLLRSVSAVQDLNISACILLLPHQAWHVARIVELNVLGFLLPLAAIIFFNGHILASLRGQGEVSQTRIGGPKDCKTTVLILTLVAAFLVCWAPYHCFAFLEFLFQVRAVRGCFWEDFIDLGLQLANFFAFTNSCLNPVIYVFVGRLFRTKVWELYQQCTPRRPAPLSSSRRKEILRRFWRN
Protocol: as §1, §2, §3

Compound: Cc1cccc(NC(=O)N[C@@H]2N=C(c3ccccc3)c3ccccc3N(C)C2=O)c1 [Compound L365260]
decrease of binding affinity [1]: 20 fold

Compound: COc1ccccc1CN[C@H]1C2CCN(CC2)[C@H]1C(c1ccccc1)c1ccccc1 [CP-96,345]
pIC50 (cloned rat NK1 receptor): 7.40

affinity (K1) at rabbit B1, in words (rabbit B1): weak activity
affinity (K1) at pig B1, in words (pig B1): weak activity
affinity (K1) at rhesus macaque B1, in words [2]: inactivity
affinity (K1) at dog B1, in words (dog B1): low nM potency
affinity (K1) at human B1, in words (human B1 receptor): inactivity
affinity (K1) at tree shrew B1, in words (tree shrew B1 receptor): inactivity
Compound: [des-Arg^9]BK (RPPGFSPF) [dABk]
